Earlier results on one compound are cited in patent US20180116967A1, “EXTENDED RELEASE TABLET OF CYCLOBENZAPRINE” (SYNMOSA BIOPHARMA CORPORATION, priority 2015, published 2018).

This data set has as its system plasma protein.

`CN(C)CCC=C1c2ccccc2C=Cc2ccccc21` [cyclobenzaprine, 3-(5H-dibenzo[a,d]cyclohepten-5-ylidene)-N,N-dimethyl-1-propanamine]: the “drug coupled to plasma protein” value was “About 93%”.
